pIC50: −log10 of the molar value.
biological target: T1, phospho p-38 alpha kinase (Homo sapiens, UniProt Q16539); assay: P-38 alpha kinase assay (spectrophotometric, pyruvate kinase/lactate dehydrogenase coupled); format: biochemical; conditions: Table 2; rates at […] to 2 h; read-out: IC50
T1 construct: purchased Panvera
Procedure: In this assay, the oxidation of NADH was continuously measured spectrophometrically. […] The reaction was initiated by adding ATP. The absorption at 340 nm was monitored continuously for up to 4 hours at 30° C. on Polarstar Optima plate reader (BMG). The kinase activity (reaction rate) was calculated from the slope at the time frame from 1.5 h to 2 h.
For inhibition determinations, test compounds were incubated with the reaction mixture for ˜5 min before adding ATP to start the reaction. […] IC50 values were calculated from a series of % inhibition values determined at a range of concentrations of each inhibitor using Prism to process the data and fit inhibition curves. Generally, the rates obtained at the time frame of 1.5 h to 2 h were used for these calculations.

T1 sequence (Q16539 whole entry): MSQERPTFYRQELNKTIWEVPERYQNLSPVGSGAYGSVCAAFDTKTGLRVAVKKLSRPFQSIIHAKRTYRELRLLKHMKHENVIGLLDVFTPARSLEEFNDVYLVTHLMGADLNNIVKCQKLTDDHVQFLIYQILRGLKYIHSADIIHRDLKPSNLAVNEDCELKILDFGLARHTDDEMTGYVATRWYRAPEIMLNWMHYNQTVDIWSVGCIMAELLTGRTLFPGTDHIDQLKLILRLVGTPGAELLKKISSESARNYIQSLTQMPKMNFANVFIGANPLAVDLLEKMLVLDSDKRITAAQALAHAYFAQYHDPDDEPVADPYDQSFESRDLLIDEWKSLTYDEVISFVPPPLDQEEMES

Row | SMILES | pIC50
1 | CC(C)(C)c1cc(NC(=O)Nc2cccc3ccccc23)n(-c2cccc(CO)c2)n1 [Example D, 1-{3-t-butyl-1-[3-(hydroxymethyl)phenyl]-1H-pyrazol-5-yl}-3-(naphthalen-1-yl)urea] | 6.75

same assay, conditions: Table 3; rates at […] to 2 h; read-out: IC50

Row | pIC50 | SMILES
2 | 5.89 | CC(C)(C)c1cc(NC(=O)Nc2cccc(Cl)c2Cl)n(-c2cccc(C(N)=O)c2)n1 [Example 289, 1-[3-t-butyl-1-(3-carbamoylphenyl)-1H-pyrazol-5-yl]-3-(2,3-dichlorophenyl)urea]

same assay, conditions: Table 5; @ 0.1 uM

Row | SMILES | % @ concentration, uM
3 | Cc1cc(NC(=O)Nc2cccc3ccccc23)n(-c2ccc(C(O)C(F)(F)F)cc2)n1 (stereo not drawn) [Example 348, 1-{3-methyl-1-[4-(2,2,2-trifluoro-1-hydroxyethyl)phenyl]-1H-pyrazol-5-yl}-3-(naphthalen-1-yl)urea] | 17%
4 | CN1CCN(C(=O)NCc2cccc(-n3nc(C(C)(C)C)cc3NC(=O)Nc3ccc(Cl)cc3)c2)CC1 [Example 390, 1-{3-t-butyl-1-(3-[(1-methylpiperazine-4-carboxamido)methyl]phenyl}-1H-pyrazol-5-yl)-3-(4-chlorophenyl)urea] | 24%

same assay, conditions: Table 5; @ 1 uM

Row | SMILES | % @ concentration, uM
5 | Cc1cc(NC(=O)Nc2cccc3ccccc23)n(-c2ccc(C(O)C(F)(F)F)cc2)n1 (stereo not drawn) [Example 348, 1-{3-methyl-1-[4-(2,2,2-trifluoro-1-hydroxyethyl)phenyl]-1H-pyrazol-5-yl}-3-(naphthalen-1-yl)urea] | 47%
6 | CN1CCN(C(=O)NCc2cccc(-n3nc(C(C)(C)C)cc3NC(=O)Nc3ccc(Cl)cc3)c2)CC1 [Example 390, 1-{3-t-butyl-1-(3-[(1-methylpiperazine-4-carboxamido)methyl]phenyl}-1H-pyrazol-5-yl)-3-(4-chlorophenyl)urea] | 63%
7 | CC(Cc1cccc(-n2nc(C(C)(C)C)cc2NC(=O)Nc2cccc(Cl)c2Cl)c1)C(=O)O (stereo not drawn) [Example 323, 3-(3-{3-t-butyl-5-[3-(2,3-dichlorophenyl)ureido]-1H-pyrazol-1-yl}-1-phenyl)-2-methylpropanoic acid] | 9%

same assay, conditions: Table 5; @ 10 uM

Row | SMILES | % @ concentration, uM
8 | CCOC(=O)c1cccc(-n2nc(-c3ccccc3)cc2NC(=O)Nc2cccc3ccccc23)c1 [Example 328, ethyl 3-[5-(3-naphthalen-1-yl-ureido)-3-phenyl-pyrazol-1-yl]benzoate] | 68% @ 10
9 | CCOC(=O)c1cccc(-n2nc(C(F)(F)F)cc2NC(=O)Nc2cccc3ccccc23)c1 [Example 336] | 27% @ 10
10 | CCOC(=O)c1cccc(-n2nc(C(C)(C)C)cc2NC(=O)Nc2cccc3ccccc23)c1 [Example 366, ethyl 3-{3-t-butyl-5-[3-(naphthalen-1-yl)ureido]-1H-pyrazol-1-yl}benzoate] | 53% @ 10
11 | CC(Cc1cccc(-n2nc(C(C)(C)C)cc2NC(=O)Nc2cccc(Cl)c2Cl)c1)C(=O)O (stereo not drawn) [Example 323, 3-(3-{3-t-butyl-5-[3-(2,3-dichlorophenyl)ureido]-1H-pyrazol-1-yl}-1-phenyl)-2-methylpropanoic acid] | 51%

same assay, conditions: Table 5; assay not named; read-out: uM

Row | IC50 | SMILES
12 | 0.0103 µM | CC(C)(C)c1cc(NC(=O)Nc2ccc(Cl)cc2)n(-c2ccc3c(c2)CNCC3)n1 [Example 407, 1-[3-t-butyl-1-(1,2,3,4-tetrahydroisoquinolin-7-yl)-1H-pyrazol-5-yl]-3-(4-chlorophenyl)urea]
13 | 0.42 µM | CCOC(=O)Cc1ccc(-n2nc(C(C)(C)C)cc2NC(=O)Nc2cccc3ccccc23)cc1 [Example 316, ethyl 2-(4-{3-t-butyl-5-[3-(naphthalen-1-yl)ureido]-1H-pyrazol-1-yl}phenyl)acetate]
14 | 2.44 µM | CC(C)c1cc(NC(=O)Nc2cccc3ccccc23)n(-c2cccc(C(C)(C)O)c2)n1 [Example 333, 1-{1-[3-(2-hydroxypropan-2-yl)phenyl]-3-isopropyl-1H-pyrazol-5-yl}-3-(naphthalen-1-yl)urea]
15 | 0.013 µM | CCOC(=O)CCc1cccc(-n2nc(C(F)(F)F)cc2NC(=O)Nc2ccc(Cl)cc2)c1 [Example 426, 3-{3-(5-[3-(4-chloro-phenyl)-ureido]-3-trifluoromethyl-pyrazol-1-yl}-phenyl)-propionic acid ethyl ester]
16 | 0.18 µM | CCOC(=O)c1ccc(-n2nc(C)cc2NC(=O)Nc2ccc(Cl)cc2)cc1 [Example 344, ethyl 4-{5-[3-(4-chlorophenyl)ureido]-3-methyl-1H-pyrazol-1-yl}benzoate]
17 | 0.068 µM | CCOC(=O)Cc1ccc(-n2nc(C(C)(C)C)cc2NC(=O)Nc2ccc(Cl)cc2)cc1 [Example 317, ethyl 2-(4-{3-t-butyl-5-[3-(4-chlorophenyl)ureido]-1H-pyrazol-1-yl}phenyl)acetate]
18 | 0.03 µM | CC(C)(C)c1cc(NC(=O)Nc2ccc(Cl)cc2)n(-c2cccc(CNC(=O)N3CCCCC3)c2)n1 [Example 385, 1-(3-t-butyl-1-{3-[(piperidine-1-carboxamido)methyl]phenyl}-1H-pyrazol-5-yl)-3-(4-chlorophenyl)urea]

Source: patent US20090312349A1, “ANTI-INFLAMMATORY MEDICAMENTS” (priority 2004, published 2009)
